pIC50, pKi: −log10 of the molar value. Read-outs that look alike come from different tables or passages of the source.
Columns and labels:
[1] = Quantitative plasma stability Method #3 (LC-MS, 95% plasma), rat plasma; type: in vitro ADME; conditions: rat, plasma; Table 15; method #3; read-out: t1/2 (hrs) in rat plasma (converted)
Procedure: To obtain plasma stability quantitatively, peptide stock solutions (1 mM in DMSO) were shipped to Biofocus, UK, who performed the analysis. Peptides were diluted to 100 uM with water, and diluted 1:20 in plasma (5 uM final concentration, with the plasma at 95%), sampled as appropriate, precipitated as above, and quantified using a Waters Xevo TQ-MS.

rat plasma Kallikrein = molecular target: T1, rat plasma Kallikrein (Rattus norvegicus, UniProt P14272); conditions: Table 1; read-out: Ki (nM) (rat kallikrein); cited from earlier work
T1 construct: polyhistidine tag (N, cleaved yes); proTEV cleavage site (pro-peptide linker) (N, cleaved yes); made in house; host or cells: HEK-293 (suspension-adapted)
T1 sequence (P14272 391-638 limits assumed): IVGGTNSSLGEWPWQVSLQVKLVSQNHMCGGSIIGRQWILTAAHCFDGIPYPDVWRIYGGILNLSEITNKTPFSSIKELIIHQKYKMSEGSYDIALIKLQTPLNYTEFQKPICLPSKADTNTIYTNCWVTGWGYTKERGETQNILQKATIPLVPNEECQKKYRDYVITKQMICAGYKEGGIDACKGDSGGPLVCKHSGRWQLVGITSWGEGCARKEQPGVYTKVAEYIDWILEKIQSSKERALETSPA

human plasma Kallikrein [2] = molecular target: T2, human plasma Kallikrein (Homo sapiens, UniProt P03952); experiment: Functional enzyme inhibition assay with fluorogenic substrate Z-PheArg-AMC, human plasma Kallikrein; type: biochemical
T2 construct: purchased Stratech, UK
T2 sequence (P03952 20-638): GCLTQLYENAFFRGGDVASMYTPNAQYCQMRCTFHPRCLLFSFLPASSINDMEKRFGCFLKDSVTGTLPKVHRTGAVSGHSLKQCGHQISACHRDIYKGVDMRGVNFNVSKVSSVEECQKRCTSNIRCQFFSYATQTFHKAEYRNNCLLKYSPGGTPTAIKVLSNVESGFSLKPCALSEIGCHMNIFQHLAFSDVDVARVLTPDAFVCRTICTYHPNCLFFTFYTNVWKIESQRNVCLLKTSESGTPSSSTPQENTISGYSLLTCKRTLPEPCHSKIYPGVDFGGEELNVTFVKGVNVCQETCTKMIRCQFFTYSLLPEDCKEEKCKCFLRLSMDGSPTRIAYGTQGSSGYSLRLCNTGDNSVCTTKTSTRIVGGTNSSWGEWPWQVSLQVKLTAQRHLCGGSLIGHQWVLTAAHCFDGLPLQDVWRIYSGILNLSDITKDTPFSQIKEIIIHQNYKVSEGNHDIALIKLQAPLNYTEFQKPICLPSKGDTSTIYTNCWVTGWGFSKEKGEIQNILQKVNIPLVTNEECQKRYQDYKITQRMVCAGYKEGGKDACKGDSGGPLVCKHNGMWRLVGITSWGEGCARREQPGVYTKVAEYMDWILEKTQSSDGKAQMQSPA
Method in brief: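 Human plasma kallikrein at 26.5 pM was preincubated 15 minutes with test peptide in Tris/NaCl/MgCl2/CaCl2/BSA buffer pH7.4 at 25° C, then Z-PheArg-AMC added to 100 μM final in 4% DMSO.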

[3] = Table 1; Method #3; cited from earlier work
human plasma Kallikrein [4] = molecular target: T2, human plasma Kallikrein; conditions: Table 1, as disclosed in PCT/EP2012/069898; cited from earlier work
human PK (hPK) = human PK (hPK) (Homo sapiens, UniProt P03952); conditions: cited from earlier work
human PK (hPK), sequence (P03952 20-638): as above

rat PK = rat PK (Rattus norvegicus, UniProt P14272); conditions: highest concentration tested (10 μM); cited from earlier work
rat PK, sequence (P14272 20-638): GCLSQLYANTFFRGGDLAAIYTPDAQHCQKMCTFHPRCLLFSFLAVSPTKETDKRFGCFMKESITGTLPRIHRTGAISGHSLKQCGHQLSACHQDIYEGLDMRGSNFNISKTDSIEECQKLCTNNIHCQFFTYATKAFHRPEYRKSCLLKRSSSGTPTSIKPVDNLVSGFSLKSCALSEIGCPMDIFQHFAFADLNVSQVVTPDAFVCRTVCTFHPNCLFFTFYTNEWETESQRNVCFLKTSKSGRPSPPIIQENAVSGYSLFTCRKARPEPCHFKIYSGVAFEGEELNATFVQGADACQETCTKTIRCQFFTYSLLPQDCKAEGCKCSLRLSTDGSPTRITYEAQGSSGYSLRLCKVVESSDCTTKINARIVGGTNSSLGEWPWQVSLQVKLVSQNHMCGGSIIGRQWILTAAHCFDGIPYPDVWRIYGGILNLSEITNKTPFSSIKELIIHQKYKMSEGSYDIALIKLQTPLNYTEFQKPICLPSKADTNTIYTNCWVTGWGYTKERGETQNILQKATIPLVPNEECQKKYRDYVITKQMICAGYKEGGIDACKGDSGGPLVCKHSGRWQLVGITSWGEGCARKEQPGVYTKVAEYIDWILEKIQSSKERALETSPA

thrombin = thrombin (Homo sapiens, UniProt P00734); conditions: highest concentration tested (10 μM); cited from earlier work
factor XIa (hfXIa) = factor XIa (hfXIa) (Homo sapiens, UniProt P03951); conditions: highest concentration tested (10 μM); cited from earlier work
factor XIa (hfXIa), sequence (P03951 388-625 limits assumed): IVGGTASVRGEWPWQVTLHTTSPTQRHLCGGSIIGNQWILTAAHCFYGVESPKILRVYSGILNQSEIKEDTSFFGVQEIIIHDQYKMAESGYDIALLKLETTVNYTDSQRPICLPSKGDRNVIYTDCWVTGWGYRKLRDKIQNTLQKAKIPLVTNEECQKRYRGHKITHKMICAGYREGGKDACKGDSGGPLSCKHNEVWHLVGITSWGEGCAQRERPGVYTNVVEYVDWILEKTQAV
factor XIa (hfXIa), sequence (P03951 19-387 partner limits assumed): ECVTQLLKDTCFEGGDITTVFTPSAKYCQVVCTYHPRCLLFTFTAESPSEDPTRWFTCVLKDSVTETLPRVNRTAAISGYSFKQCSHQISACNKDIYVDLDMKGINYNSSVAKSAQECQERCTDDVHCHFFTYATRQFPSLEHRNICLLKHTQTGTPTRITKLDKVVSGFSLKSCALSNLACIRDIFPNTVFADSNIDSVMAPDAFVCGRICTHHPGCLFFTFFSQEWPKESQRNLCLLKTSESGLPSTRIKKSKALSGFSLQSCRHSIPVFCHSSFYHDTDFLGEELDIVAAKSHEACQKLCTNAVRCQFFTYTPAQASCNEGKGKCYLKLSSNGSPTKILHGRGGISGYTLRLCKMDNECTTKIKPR

| Molecule | half-life at 5 uM [1] [h] | Ki (rat plasma Kallikrein) [nM] | reduction in potency/affinity compared to wildtype (human plasma Kallikrein [2]) [fold] | Ki (human plasma Kallikrein [2]; Table 15, read-out: Ki (nM) (human kallikrein)) | t1/2 (hrs) in rat plasma [3] [h] | Ki (human plasma Kallikrein [4]) [nM] | pKi (human PK (hPK); Heinis et al. 2009, read-out: Kl human PK (hPK)) | pIC50 (human PK (hPK); background, read-out: IC50 binding constant for human Kallikrein) | inhibition of rat PK (rat PK) | inhibition of thrombin (thrombin) | inhibition of factor XIa (hfXIa) (factor XIa (hfXIa)) |
| --- | --- | --- | --- | --- | --- | --- | --- | --- | --- | --- | --- |
| CC(=O)N[C@H]1CSCc2cc3cc(c2)CSC[C@H](NC(=O)[C@H](Cc2ccc(NC(=N)N)cc2)NC(=O)[C@H](C)NC(=O)[C@@H]2CCCN2C(=O)[C@H](Cc2c[nH]c4ccccc24)NC(=O)[C@H](CO)NC1=O)C(=O)N[C@@H](CC(C)C)C(=O)N[C@@H](Cc1c[nH]cn1)C(=O)N[C@@H](CCC(N)=O)C(=O)N[C@@H](CC(=O)O)C(=O)N[C@@H](CC(C)C)C(=O)N[C@H](C(N)=O)CSC3 [Ac-(06-34-18) 4GuanPhe5] | 2.8 | 3 | 2 | 0.34 | 2.8 | 0.34 | – | – | – | – | – |
| H-ACSDRFRNCPADEALCG-NH2 [PK15] | – | – | – | – | – | – | 8.52 | 8.77 | did not inhibit | did not inhibit | did not inhibit |
